# Reference: US8063053B2, “1-(arylsulfonyl)-4-(piperazin-1-yl)-1H-benzimidazoles as 5-hydroxytryptamine-6 ligands” (Wyeth LLC, priority 2008, dated 2011)
# Biological target: T1, serotonin 5-HT6 receptor subtype (Homo sapiens, UniProt P50406)
# T1 construct: host or cells: CHO-Dukx-A2 cells, clone 50-7
# Test: 5-HT6 binding affinity ([3H]-LSD SPA binding)
# Conditions: read-out: 5-HT6 binding Ki
# T1 sequence (P50406 whole entry): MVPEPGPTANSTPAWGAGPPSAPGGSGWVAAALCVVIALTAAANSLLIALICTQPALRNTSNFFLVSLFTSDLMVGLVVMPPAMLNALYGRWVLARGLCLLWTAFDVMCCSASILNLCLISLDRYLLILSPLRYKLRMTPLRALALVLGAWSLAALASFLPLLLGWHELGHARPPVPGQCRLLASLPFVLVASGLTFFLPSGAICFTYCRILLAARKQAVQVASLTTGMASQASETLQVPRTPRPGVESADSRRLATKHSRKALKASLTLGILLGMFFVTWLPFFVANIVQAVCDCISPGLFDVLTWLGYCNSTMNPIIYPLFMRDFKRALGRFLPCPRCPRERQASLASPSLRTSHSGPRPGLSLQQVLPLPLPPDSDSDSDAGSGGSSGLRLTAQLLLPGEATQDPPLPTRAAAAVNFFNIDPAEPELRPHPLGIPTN
row,SMILES,Ki [nM]
1,"Cc1nc2c(N3CCNC(C)C3)cccc2n1S(=O)(=O)c1cccc2ccccc12 (stereo in doubt) [Example 117, 2-methyl-4-[(3S)-3-methylpiperazin-1-yl]-1-(1-naphthylsulfonyl)-1H-benzimidazole]",0.305
2,"Cc1nc2c(N3C[C@@H]4C[C@H]3CN4)cccc2n1S(=O)(=O)c1ccccc1 [Example 109, 4-[(1S,4S)-2,5-diazabicyclo[2.2.1]hept-2-yl]-2-methyl-1-(phenylsulfonyl)-1H-benzimidazole]",30.5
3,"Cc1nc2c(N3C[C@@H](C)N[C@@H](C)C3)cccc2n1S(=O)(=O)c1ccccc1Cl [Example 98, 1-[(2-chlorophenyl)sulfonyl]-4-[(3R,5S)-3,5-dimethylpiperazin-1-yl]-2-methyl-1H-benzimidazole]",3.5
4,"O=S(=O)(c1cccc2ccccc12)n1cnc2c(N3CCNCC3)cccc21 [Example 2, 1-(naphthalen-1-ylsulfonyl)-4-(piperazin-1-yl)-1H-benzo[d]imidazole]",0.165
5,"O=S(=O)(c1c(Cl)cccc1Cl)n1cnc2c(N3CCNCC3)cccc21 [Example 86, 1-[(2,6-dichlorophenyl)sulfonyl]-4-piperazin-1-yl-1H-benzimidazole]",1.33
6,"O=S(=O)(c1ccccc1)n1cnc2c(N3C[C@@H]4C[C@H]3CN4)cccc21 [Example 104, 4-[(1S,4S)-2,5-diazabicyclo[2.2.1]hept-2-yl]-1-(phenylsulfonyl)-1H-benzimidazole]",44.7
7,"O=S(=O)(c1ccccc1OC(F)(F)F)n1cnc2c(N3CCNCC3)cccc21 [Example 33, 4-piperazin-1-yl-1-{[2-(trifluoromethoxy)phenyl]sulfonyl}-1H-benzimidazole]",0.72
8,"O=S(=O)(c1cccc(Cl)c1)n1cnc2c(N3CCNCC3)cccc21 [Example 19, 1-[(3-chlorophenyl)sulfonyl]-4-piperazin-1-yl-1H-benzimidazole]",4.3
9,"Cc1nc2c(N3CCNC(C)C3)cccc2n1S(=O)(=O)c1ccccc1 (centres unmarked) [Example 91, 2-methyl-4-(3-methylpiperazin-1-yl)-1-(phenylsulfonyl)-1H-benzimidazole]",2.44
10,"Cc1c(Cl)cccc1S(=O)(=O)n1cnc2c(N3C[C@@H]4C[C@H]3CN4)cccc21 [Example 108, 1-[(3-chloro-2-methylphenyl)sulfonyl]-4-[(1S,4S)-2,5-diazabicyclo[2.2.1]hept-2-yl]-1H-benzimidazole]",2.86
11,"CC(C)c1nc2c(N3CCNCC3)cccc2n1S(=O)(=O)c1ccccc1Cl [Example 59, 1-[(2-chlorophenyl)sulfonyl]-4-(1-methylethyl)-4-piperazin-1-yl-1H-benzimidazole]",0.463
12,"Cc1cccc(S(=O)(=O)n2c(C)nc3c(N4CCNCC4)cccc32)c1 [Example 18, 2-methyl-1-[(3-methylphenyl)sulfonyl]-4-piperazin-1-yl-1H-benzimidazole]",1.3
13,"Cc1cccc(S(=O)(=O)n2cnc3c(N4CCNCC4)cccc32)c1F [Example 73, 1-[(2-fluoro-3-methylphenyl)sulfonyl]-4-piperazin-1-yl-1H-benzimidazole]",0.202
14,"O=S(=O)(c1cccc2c(Cl)cccc12)n1cnc2c(N3CCNCC3)cccc21 [Example 50, 1-[(5-chloro-1-naphthyl)sulfonyl]-4-piperazin-1-yl-1H-benzimidazole]",1.36
15,"Cc1nc2c(N3CCNCC3)cccc2n1S(=O)(=O)c1cccc(Cl)c1 [Example 16, 1-[(3-chlorophenyl)sulfonyl]-2-methyl-4-piperazin-1-yl-1H-benzimidazole]",0.99
16,"Cc1ccccc1S(=O)(=O)n1c(C)nc2c(N3CCNCC3)cccc21 [Example 47, 2-methyl-1-[(2-methylphenyl)sulfonyl]-4-piperazin-1-yl-1H-benzimidazole]",2.26

row,SMILES,Ki [nM]
1,"Cc1nc2c(N3CCNCC3)cccc2n1S(=O)(=O)c1ccc(OC(F)(F)F)cc1 [Example 30, 2-methyl-4-piperazin-1-yl-1-{[4-(trifluoromethoxy)phenyl]sulfonyl}-1H-benzimidazole]",15.8
2,"O=S(=O)(c1ccccc1Cl)n1cnc2c(N3C[C@@H]4C[C@H]3CN4)cccc21 [Example 106, 1-[(2-chlorophenyl)sulfonyl]-4-[(1S,4S)-2,5-diazabicyclo[2.2.1]hept-2-yl]-1H-benzimidazole]",5.3
3,"O=S(=O)(c1cccc(F)c1)n1cnc2c(N3CCNCC3)cccc21 [Example 22, 1-[(3-fluorophenyl)sulfonyl]-4-piperazin-1-yl-1H-benzimidazole]",1.5
4,"CCOc1ccccc1S(=O)(=O)n1c(C)nc2c(N3CCNCC3)cccc21 [Example 89, 1-[(2-ethoxyphenyl)sulfonyl]-2-methyl-4-piperazin-1-yl-1H-benzimidazole]",0.761
5,"CC(C)CC1CN(c2cccc3c2ncn3S(=O)(=O)c2ccccc2Cl)CCN1 (centres unmarked) [Example 125, 1-[(2-chlorophenyl)sulfonyl]-4-(3-isobutylpiperazin-1-yl)-1H-benzimidazole]",4.98
6,"CCC1CN(c2cccc3c2ncn3S(=O)(=O)c2cccc3ccccc23)CCN1 (centres unmarked) [Example 118, 4-(3-ethylpiperazin-1-yl)-1-(1-naphthylsulfonyl)-1H-benzimidazole]",1.38
7,"C[C@@H]1CN(c2cccc3c2ncn3S(=O)(=O)c2cccc(Cl)c2)CCN1 [Example 76, 1-[(3-chlorophenyl)sulfonyl]-4-[(3R)-3-methylpiperazin-1-yl]-1H-benzimidazole]",2.35
8,"CC(C)CC1CN(c2cccc3c2ncn3S(=O)(=O)c2ccccc2)CCN1 (centres unmarked) [Example 123, 4-(3-isobutylpiperazin-1-yl)-1-(phenylsulfonyl)-1H-benzimidazole]",34.3
9,"O=S(=O)(c1cc(F)cc(Cl)c1)n1cnc2c(N3CCNCC3)cccc21 [Example 88, 1-[(3-chloro-5-fluorophenyl)sulfonyl]-4-piperazin-1-yl-1H-benzimidazole]",0.589
10,"Cc1ccc(S(=O)(=O)n2cnc3c(N4CCNCC4)cccc32)cc1 [Example 27, 1-[(4-methylphenyl)sulfonyl]-4-piperazin-1-yl-1H-benzimidazole]",2.5
11,"COc1ccc(Cl)cc1S(=O)(=O)n1cnc2c(N3CCNCC3)cccc21 [Example 65, 1-[(5-chloro-2-methoxyphenyl)sulfonyl]-4-piperazin-1-yl-1H-benzimidazole]",3.56
12,"CCC1CN(c2cccc3c2ncn3S(=O)(=O)c2ccccc2)CCN1 (centres unmarked) [Example 119, 4-(3-ethylpiperazin-1-yl)-1-(phenylsulfonyl)-1H-benzimidazole]",0.484
13,"Cc1nc2c(N3CCNCC3)cccc2n1S(=O)(=O)c1cccc(OC(F)(F)F)c1 [Example 14, 2-methyl-4-piperazin-1-yl-1-{[3-(trifluoromethoxy)phenyl]sulfonyl}-1H-benzimidazole]",2.3
14,"COc1ccc(S(=O)(=O)n2cnc3c(N4CCNCC4)cccc32)cc1 [Example 24, 1-[(4-methoxyphenyl)sulfonyl]-4-piperazin-1-yl-1H-benzimidazole]",15.1
15,"CC(C)c1nc2c(N3CCNCC3)cccc2n1S(=O)(=O)c1cccc2ccccc12 [Example 61, 2-(1-methylethyl)-1-(naphthalen-1-ylsulfonyl)-4-piperazin-1-yl-1H-benzimidazole]",0.6
16,"Cc1nc2c(N3CCN(C)CC3)cccc2n1S(=O)(=O)c1cccc2ccccc12 [Example 9, 2-methyl-4-(4-methylpiperazin-1-yl)-1-(1-naphthylsulfonyl)-1H-benzimidazole]",0.004
